The record followed here is patent US5308856A, “Thiazolidine-2,4-dione derivatives, salts and preparation processes thereof” (Kyorin Pharmaceutical Co., Ltd., priority 1991, dated 1994).

In general, IC50 refers to the concentration needed to halve the response being measured. A low value points to higher potency.

Test [1] relates to blood glucose. Kind of test: Enhancement of Insulin Sensitivity in Rats. Type of test: in vivo. To be noted: 10 mg/kg/day p.o. once daily 5 days, fasted 18 h, insulin 0.1 unit/kg i.p., n = 5, *P < 0.01, reference (insulin only) 11.0 ± 0.8. The protocol:
Enhancement of Insulin Sensitivity in Rats
After rats were orally administered with the compound of Example 1 once daily for 5 days at 10 mg/kg/day, they were fasted for 18 hours and then insulin was intraperitoneally injected at 0.1 unit/kg. Blood samples were collected from the tail vein 0 and 1 hour after the injection of insulin for the determination of blood glucose (Table 1).

The target of test [2] is T1, aldose reductase extracted from rat lens (Rattus norvegicus, UniProt P07943).
T1 construct: aldose reductase extracted from rat lens; from tissue; host or cells: rat lens
As to the kind of experiment: Inhibition of Aldose Reductase in Vitro. Type of test: biochemical. The source says: Inhibition of Aldose Reductase in Vitro
According to the method of Hyman and Kinoshita (J. Biol. Chem., 240, 877, 1965), inhibitory activity of the compound of Example 23 on aldose reductase extracted from rat lens was investigated. As a result, the following IC50 value was obtained (Table 3).

Test [3] deals with blood glucose. As to the kind of experiment: Improvement of Glucose Tolerance in Genetically Obese Mice (OGTT). The class given is in vivo, Genetically obese mice (CS57BL ob/ob mice). The following applies: ob/ob mice, fasted 18 h, glucose 2 g/kg p.o. The protocol:
Improvement of Glucose Tolerance in Genetically Obese Mice
Genetically obese mice (CS57BL ob/ob mice) were orally administered with the compound of Example 1 once daily for 5 days at 10, 30 or 100 mg/kg/day, respectively. They were fasted for 18 hours and then 2 g/kg of glucose was orally administered. Blood samples were collected from the tail vein 0, 30, 60 and 120 minutes after the administration of glucose for the determination of blood glucose (Table 2).

As for `O=C1NC(=O)C(c2ccc(N3Cc4ccccc4C3=O)cc2)S1` (centres unmarked) [Example 1, 5-(4-(1-Oxoisoindoline-2-yl)Phenyl)Thiazolidine-2,4-Dione], the “0 hour value-1 hour value (blood glucose)” value in test [1] came out at 23.0 ± 1.2 mg %. Further, the midpoint of inhibition in test [2], the IC50, lay at 90 nM. Besides, the “OGTT (% of control)” value in test [3] (10 mg/kg/day p.o. once daily 5 days) is reported as 98.2 % of control; in test [3] (30 mg/kg/day p.o. once daily 5 days), 84.1 % of control; in test [3] (100 mg/kg/day p.o. once daily 5 days), 81.1 % of control.
